Laboratory results from PMC10150354, “Linearization of the Brevicidine and Laterocidine Lipopeptides Yields Analogues That Retain Full Antibacterial Activity” (Journal of Medicinal Chemistry, 2023).
Values after ≈ are worked out from the molar mass of the structure shown. Where a SMILES comes first, the peptide text is derived from it. [ ]: non-standard residue; d: D form. The star is where a group is joined. ξ: configuration not given here. Hexanoyl(4ξ-Me) = CCC(C)CCC(=O)*; dOrn = NCCC[C@@H](N)C(=O)O; Orn = NCCC[C@H](N)C(=O)O

Key:
E. coli ATCC 25922 = type: cell-based, Escherichia coli
In short: (§1)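 CLSI broth microdilution in MHB, polypropylene plates; log-phase bacteria (OD600 ~0.5, grown in TSB, with kanamycin for the E. coli ATCC 25922 MCR-1 strain) added at 2 × 10^5 CFU/mL. Read visually after 18 h at 37 °C with shaking; MIC = lowest concentration preventing visible growth, three technical replicates.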

E. coli (MCR-1) = type: cell-based, Escherichia coli; conditions: microbroth dilution per CLSI, MHB, 18 h at 37 °C, visual inspection, three technical replicates, E. coli 25922 carrying mcr-1
In short: as §1

[1] = test system: panel of Gram-negative and Gram-positive ESKAPE pathogens; type: cell-based; conditions: against most strains of the panel
Procedure: Linear laterocidine (LL-OH, 4) and linear brevicidine (LB-OH, 5) were first synthesized by Fmoc SPPS, starting from 2-chlorotrityl (2-CT) chloride resin. The antibacterial activity of these peptides was then compared to brevicidine (1) and laterocidine (2) using minimum inhibitory concentration (MIC)/microbroth dilution assays (Table 1). The MICs of all peptides were determined against a panel of Gram-negative and Gram-positive ESKAPE pathogens. Additionally, a strain of E. coli carrying the mcr-1 gene was included in the panel. The mcr-1 gene is a transferrable plasmid that confers resistance against colistin, a last-resort antibiotic for Gram-negative infections, by reducing the overall negative charge of lipopolysaccharide (LPS) through modification of lipid A with phosphoethanolamine. The propensity for cationic antibiotics to bind to the cell membrane is therefore reduced. This gene has been observed in more than 27 bacterial species over six continents.[26] The spread of the mcr-1 gene could render colistin ineffectual; therefore, novel antibacterials are urgently required to overcome this form of resistance.
All minimum inhibitory concentrations (MICs) were determined according to Clinical and Laboratory Standards Institute (CLSI) guidelines. Blood agar plates were inoculated with glycerol stocks of E. coli ATCC 25922, K. pneumoniae ATCC 13883, A. baumannii ATCC 17961, P. aeruginosa PAO1, and S. aureus USA300. The inoculated agar plates were then incubated for 16 h at 37 °C. Individually grown colonies were subsequently used to inoculate 5 mL aliquots of TSB that were then incubated at 37 °C with shaking at 220 rpm. E. coli 25922 MCR-1 glycerol stock was used to inoculate 5 mL of TSB supplemented with kanamycin that was then incubated for 16 h at 37 °C with shaking at 220 rpm. The next day the culture was diluted 100-fold in TSB supplemented with kanamycin and incubated at 37 °C with shaking at 220 rpm. In parallel, the lipopeptide antibiotics DMSO stocks to be assessed were serially diluted with MHB in polypropylene 96-well plates (50 μL in each well). Colistin sulfate stocks were dissolved in water before being diluted with MHB. Aliquots of the inoculated TSB were incubated until an OD600 of around 0.5 was reached. The bacterial suspensions were then diluted with MHB (2 × 10^5 CFU/mL) and added to the microplates containing the test compounds (50 μL to each well). The well plates were sealed with an adhesive membrane and after 18 h of incubation at 37 °C with shaking at 600 rpm, the wells were visually inspected for bacterial growth. MIC values reported are based on three technical replicates and defined as the lowest concentration of the compound that prevented visible growth of bacteria.

S. aureus USA300 = type: cell-based, Staphylococcus aureus; conditions: microbroth dilution per CLSI, MHB, 18 h at 37 °C, visual inspection, three technical replicates
In short: as §1

A. baumannii ATCC 17961 = type: cell-based, Acinetobacter baumannii; conditions: microbroth dilution per CLSI, MHB, 18 h at 37 °C, visual inspection, three technical replicates
In short: as §1

K. pneumoniae ATCC 13883 = type: cell-based, Klebsiella pneumoniae; conditions: microbroth dilution per CLSI, MHB, 18 h at 37 °C, visual inspection, three technical replicates
In short: as §1

P. aeruginosa PAO1 = type: cell-based, Pseudomonas aeruginosa; conditions: microbroth dilution per CLSI, MHB, 18 h at 37 °C, visual inspection, three technical replicates
In short: as §1

In the case of `CCC(C)CCC(=O)N[C@H](CC(N)=O)C(=O)N[C@H](Cc1ccc(O)cc1)C(=O)N[C@H](Cc1c[nH]c2ccccc12)C(=O)N[C@H](CCCN)C(=O)N[C@@H](CCCN)C(=O)NCC(=O)N[C@H](CCCN)C(=O)N[C@@H](Cc1c[nH]c2ccccc12)C(=O)N[C@@H](Cc1ccccc1)C(=O)N[C@H](C(=O)NCC(N)=O)[C@@H](C)CC` (some centres unmarked) [Δ12LB (Phe9)-NH2 (54)] ({Hexanoyl(4ξ-Me)}-[dN][dY][dW][dOrn][Orn]G[dOrn]WFIG-NH2), the “MIC (µg/mL) against E. coli (ATCC 25922)” value (E. coli ATCC 25922; (Supplement 2)) is reported as 4 µg/mL (≈ 2.67 µM), the “Antibacterial activity (MIC) E. coli ATCC 25922” value (E. coli ATCC 25922; MIC, microbroth dilution per CLSI, MHB, 18 h at 37 °C, visual inspection, three technical replicates) is reported as 2 µg/mL and the “Antibacterial activity (MIC) E. coli (MCR-1)” value (E. coli (MCR-1)) is reported as 2 to 4 µg/mL. The “MIC values, summarised over strains” value [1] was 2 to 4 µg/mL, the “Antibacterial activity (MIC) S. aureus USA300” value (S. aureus USA300) was over 32 µg/mL and the “Antibacterial activity (MIC) A. baumannii ATCC 17961” value (A. baumannii ATCC 17961) was 4 µg/mL. The “Antibacterial activity (MIC) K. pneumoniae ATCC 13883” value (K. pneumoniae ATCC 13883) was 2 to 4 µg/mL and the “Antibacterial activity (MIC) P. aeruginosa PAO1” value (P. aeruginosa PAO1) was 4 µg/mL.
